Assays:
CCRF-CEM [1] = assay: Compound was evaluated for its ability to inhibit the replication of HIV-1 virus by 50% in cell culture using XTT endpoint; format: functional; settings: Homo sapiens, read-out: ED50 (the source's name)
[2] = molecular target: Human immunodeficiency virus type 1 protease (Human immunodeficiency virus 1, UniProt Q72874); assay: Inhibition of HIV protease cleavage of V-S-Q-N-(b-naphthylalanine)-P-I-V
CCRF-CEM [3] = assay: Cytotoxicity against CEM cells; format: functional, Homo sapiens
[4] = Half-life period by analytical HPLC at pH 7.2; format: ADME
CCRF-CEM [5] = assay: Compound was evaluated for its ability to inhibit the replication of HIV-2 virus (strain CBL-20) by 50% in cell culture using XTT endpoint; format: functional; settings: Homo sapiens, read-out: ED50 (the source's name)

C[C@@H](O)C(C)(C)OC(=O)N[C@@H](Cc1ccccc1)[C@H](O)CNC[C@@H](O)[C@H](Cc1ccccc1)NC(=O)OC(C)(C)C
EC50 (CCRF-CEM [1]): 320 nM
IC50 [2]: 160 nM
Cytotoxicity (CCRF-CEM [3]): >10 µM

CC(C)(C)OC(=O)N[C@@H](Cc1ccccc1)[C@H](O)CNC[C@@H](O)[C@@H](N)Cc1ccccc1
IC50 [2]: > 10000 nM

CC(C)(C)OC(=O)N[C@@H](Cc1ccccc1)[C@H](O)CNC[C@@H](O)[C@H](Cc1ccccc1)NC(=O)OC(C)(C)CN
IC50 [2]: > 10000 nM

CC(C)(C)OC(=O)N[C@@H](Cc1ccccc1)[C@H](O)CNC[C@@H](O)[C@H](Cc1ccccc1)NC(=O)OC(C)(CO)CO
IC50 [2]: 200 nM
Cytotoxicity (CCRF-CEM [3]): >10 µM
half-life [4]: 18 h

CC(C)(C)OC(=O)N[C@@H](Cc1ccccc1)[C@H](O)CNC[C@@H](O)[C@H](Cc1ccccc1)NC(=O)OCCO
EC50 (CCRF-CEM [1]): 280 nM
IC50 [2]: 230 nM
Cytotoxicity (CCRF-CEM [3]): >10 µM

CC(C)(C)OC(=O)N[C@@H](Cc1ccccc1)[C@H](O)CNC[C@@H](O)[C@H](Cc1ccccc1)NC(=O)OC(C)(C)CO
EC50 (CCRF-CEM [5]): 103 nM
EC50 (CCRF-CEM [1]): 38 nM
IC50 [2]: 35 nM
Cytotoxicity (CCRF-CEM [3]): >=10000 nM

C[C@H](O)C(C)(C)OC(=O)N[C@@H](Cc1ccccc1)[C@H](O)CNC[C@@H](O)[C@H](Cc1ccccc1)NC(=O)OC(C)(C)C
EC50 (CCRF-CEM [1]): 35 nM
IC50 [2]: 105 nM
Cytotoxicity (CCRF-CEM [3]): >10 µM

COCC(C)(C)OC(=O)N[C@@H](Cc1ccccc1)[C@H](O)CNC[C@@H](O)[C@H](Cc1ccccc1)NC(=O)OC(C)(C)C
EC50 (CCRF-CEM [1]): 1040 nM
IC50 [2]: 420 nM
Cytotoxicity (CCRF-CEM [3]): >=10000 nM

CC(C)(C)OC(=O)N[C@@H](Cc1ccccc1)[C@H](O)CNC[C@@H](O)[C@H](Cc1ccccc1)NC(=O)OC(C)(C)CNC=O
EC50 (CCRF-CEM [1]): 610 nM
IC50 [2]: 1500 nM
Cytotoxicity (CCRF-CEM [3]): >=10000 nM

CC(C)(C)OC(=O)N[C@@H](Cc1ccccc1)[C@H](O)CNC[C@@H](O)[C@H](Cc1ccccc1)NC(=O)OC(C)(C)CCCO
EC50 (CCRF-CEM [1]): 650 nM
IC50 [2]: 1100 nM
Cytotoxicity (CCRF-CEM [3]): >=10000 nM

CC(C)(C)OC(=O)N[C@@H](Cc1ccccc1)[C@H](O)CNC[C@@H](O)[C@H](Cc1ccccc1)NC(=O)OC(C)(C)CCO
EC50 (CCRF-CEM [1]): 175 nM
IC50 [2]: 200 nM
Cytotoxicity (CCRF-CEM [3]): >=10000 nM

CC(C)(CO)OC(=O)N[C@@H](Cc1ccccc1)[C@H](O)CNC[C@@H](O)[C@H](Cc1ccccc1)NC(=O)OC(C)(C)CO
EC50 (CCRF-CEM [1]): 843 nM
IC50 [2]: 16 nM
Cytotoxicity (CCRF-CEM [3]): >10 µM

CC(C)(C)OC(=O)N[C@@H](Cc1ccccc1)[C@H](O)CNC[C@@H](O)[C@H](Cc1ccccc1)NC(=O)OC1(CO)CCC1
EC50 (CCRF-CEM [1]): 155 nM
IC50 [2]: 100 nM
Cytotoxicity (CCRF-CEM [3]): >10 µM

CC(C)(C)OC(=O)N[C@@H](Cc1ccccc1)[C@H](O)CNC[C@@H](O)[C@H](Cc1ccccc1)NC(=O)OC(C)(C)C
EC50 (CCRF-CEM [1]): 80 nM
Cytotoxicity (CCRF-CEM [3]): >=10000 nM
